In the supplement of paper PMC10307832:

Key:
Test in all cases: relative viability (nuclei count vs DMSO), 5 days (fraction); higher = more cells survive
[1] = compound: C1CNCCC1C2=CC(=NN2)C3=CC=NC=C3 + C[C@@H](Oc1cc(-c2cnn(C3CCNCC3)c2)cnc1N)c1c(Cl)ccc(F)c1Cl [Crizotinib] (partner 1 µM)
Method in brief: (§1)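 Lung cancer cell lines were pin-tool dosed in 1536-well plates on the day after seeding, with either a lone drug or a fixed anchor-drug dose plus five library-drug doses (not always all listed) in √10 steps. Nuclei were counted on 4× images after 5 days. Relative viability is the ratio of treated-well to vehicle-well nuclei counts, with each value a median of duplicate plates.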

[2] = compound: C[C@@H](N)c1ccc(C(=O)Nc2ccnc3[nH]ccc23)cc1 + Nc1ncn([C@H]2C[C@H](O)[C@@H](CO)O2)c(=O)n1 [Decitabine] (partner 2 µM)
Method in brief: as §1

[3] = compound: O[C@H]1CC[C@H](Nc2ncc3nc(Nc4c(F)cc(F)cc4F)n([C@H]4CCOC4)c3n2)CC1 [Tanzisertib] + CCNC(=O)c1noc(-c2cc(C(C)C)c(O)cc2O)c1-c1ccc(CN2CCOCC2)cc1 [Luminespib] (partner 0.01 µM)
Method in brief: as §1

[4] = compound: C1CNCCC1C2=CC(=NN2)C3=CC=NC=C3 + CC(C)C[C@H](NC(=O)[C@H](Cc1ccccc1)NC(=O)c1cnccn1)B(O)O [Bortezomib] (partner 0.002 µM)
Method in brief: as §1

| Cell Line | relative viability ([1]; first compound 0.08 µM) | relative viability ([1]; first compound 0.8 µM) | relative viability ([1]; first compound 2.53 µM) | relative viability ([1]; first compound 8 µM) | relative viability ([2]; first compound 0.04 µM) | relative viability ([2]; first compound 0.1265 µM) | relative viability ([2]; first compound 0.4 µM) | relative viability ([2]; first compound 1.265 µM) | relative viability ([2]; first compound 4 µM) | relative viability ([3]; first compound 0.08 µM) | relative viability ([3]; first compound 0.253 µM) | relative viability ([3]; first compound 0.8 µM) | relative viability ([3]; first compound 2.53 µM) | relative viability ([3]; first compound 8 µM) | relative viability ([4]; first compound 0.08 µM) | relative viability ([4]; first compound 0.8 µM) | relative viability ([4]; first compound 2.53 µM) | relative viability ([4]; first compound 8 µM) |
| --- | --- | --- | --- | --- | --- | --- | --- | --- | --- | --- | --- | --- | --- | --- | --- | --- | --- | --- |
| NCI-H2170 | 1.04 | 1.23 | 1.42 | 1.15 | 0.497 | 0.467 | 0.489 | 0.517 | 0.429 | 0.857 | 0.739 | 0.633 | 0.684 | 0.78 | – | – | – | – |
| HCC-366 | 0.462 | 0.559 | 0.551 | 0.536 | 0.323 | 0.331 | 0.353 | 0.405 | 0.343 | – | – | – | – | – | 0.856 | 1.11 | 1.08 | 1.04 |
| NCI-H2347 | 0.681 | 0.676 | 0.939 | 0.781 | 0.657 | 0.594 | 0.623 | 0.566 | 0.54 | 0.494 | – | 0.581 | 0.571 | 0.511 | 0.937 | 0.951 | 1.05 | 0.969 |
| COR-L 105 | 0.649 | 0.982 | 0.799 | 0.906 | 0.651 | 0.674 | 0.627 | 0.495 | 0.526 | 0.795 | 0.754 | 0.651 | 0.986 | 0.69 | 0.737 | 0.746 | 1.01 | 0.851 |
| 201T | 1.01 | 1.01 | 1.02 | 0.991 | 0.846 | 0.853 | 0.851 | 0.979 | 0.941 | 1.09 | 1.06 | 1.06 | 1.03 | 1.05 | 1.06 | 1.07 | 1.08 | 1.1 |
| NCI-H2126 | 0.952 | 1.05 | 1.01 | 0.979 | 0.56 | 0.583 | 0.596 | 0.599 | 0.572 | 0.919 | 0.897 | 0.887 | 0.961 | 0.993 | 1.1 | 1.12 | 1.16 | 1.12 |
| LC-2-ad | 0.491 | 0.478 | 0.445 | 0.456 | 0.935 | 0.775 | 0.827 | 0.775 | 0.563 | 1.15 | 1.04 | 1.03 | 1.07 | 1.05 | 1.07 | 1.52 | 0.994 | 0.944 |
| NCI-H2085 | 0.976 | 0.938 | 0.973 | 0.825 | 0.528 | 0.573 | 0.742 | 0.561 | 0.521 | 0.525 | 0.406 | 0.443 | 0.459 | 0.457 | 0.975 | 0.736 | 1.11 | 1.03 |
| NCI-H358 | 0.479 | 0.526 | 0.633 | 0.474 | 0.232 | 0.222 | 0.191 | 0.19 | 0.207 | 0.302 | 0.282 | 0.5 | 0.29 | 0.318 | – | – | – | – |
| H3255 | 0.891 | 0.816 | 1.02 | 0.609 | 0.603 | 0.747 | 0.67 | 0.67 | 0.481 | 0.818 | 0.929 | 1.02 | 0.846 | 0.773 | 0.826 | 0.835 | 1.41 | 0.741 |
| NCI-H2228 | 0.566 | 0.428 | 0.486 | 0.482 | – | – | – | – | – | 0.2 | 0.188 | 0.173 | 0.162 | 0.132 | 0.929 | 1.22 | 1.07 | 0.863 |
| CAL-12T | 0.473 | 0.74 | 0.716 | 0.774 | – | – | – | – | – | 0.383 | 0.409 | 0.376 | 0.731 | 0.247 | 1.08 | 1.01 | 1.05 | 1.07 |
| A-427 | 0.874 | 0.93 | 0.944 | 0.846 | 0.499 | 0.564 | 0.549 | 0.517 | 0.545 | 0.941 | 0.893 | 0.942 | 0.972 | 1.07 | 1.03 | 0.955 | 1.06 | 0.935 |
| HARA | 1.05 | 1.08 | 1.05 | 1.03 | 0.54 | 0.672 | 0.52 | 0.611 | 0.401 | 0.856 | 0.907 | 1.06 | 0.79 | 0.686 | 1 | 1.28 | 1.1 | 1.15 |
| NCI-H1793 | – | – | – | – | 0.506 | 0.556 | 0.547 | – | 0.463 | 0.174 | 0.216 | 0.2 | 0.165 | 0.216 | – | – | – | – |
| NCI-H1623 | – | – | – | – | – | – | – | – | – | 0.617 | 0.443 | 0.484 | 0.502 | 0.624 | – | – | – | – |
| NCI-H2009 | 0.96 | 1.08 | 1.08 | 1.03 | 0.318 | 0.391 | 0.355 | 0.346 | 0.351 | 1.09 | 1.06 | 1.11 | 1.02 | 1.04 | 1.04 | 0.989 | 1.09 | 0.99 |
| ABC-1 | 0.988 | 1.12 | 1.04 | 1.18 | 1.2 | 0.895 | 1.13 | 1.46 | 1.46 | 0.777 | 0.428 | 0.518 | 0.735 | 0.944 | 0.329 | 0.253 | 0.332 | 0.351 |
| IA-LM | 0.842 | 0.839 | 1.14 | 0.92 | – | – | – | – | – | – | – | – | – | – | 0.911 | 0.934 | 1.08 | 0.864 |
| NCI-H322M | 0.851 | 0.875 | 0.878 | 0.955 | 0.744 | 0.833 | 0.906 | 0.809 | 0.876 | 0.834 | 0.751 | 0.87 | 0.932 | 0.951 | 1.27 | 1.19 | 1.39 | 1.29 |
| NCI-H1792 | 0.987 | 0.983 | 1.06 | 0.959 | 0.571 | 0.558 | 0.489 | 0.675 | 0.462 | 0.413 | 0.402 | 0.447 | 0.448 | 0.344 | 0.96 | 0.998 | 1.07 | 0.993 |
